Laboratory results reported in patent US6410790B1, “3-amin3-arylpropan-1-ol compounds, their preparation and use” (priority 1999, dated 2002).

Tests used:
[1] = system: phenylquinone-induced writhing reaction; experiment: phenylquinone-induced writhing test in mice; assay type: in vivo; details: male NMRI mice, phenylquinone i.p. 10 minutes later; for inhibition in vivo at 10 mg/kg: Mus musculus, iv, 10 min, 10 mg/kg intravenously
Procedure, shortened: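 Male NMRI mice (25–30 g, n=10/group) received test substance i.v. at 10 mg/kg, then 0.02% phenylquinone i.p. 10 min later. Writhing reactions were counted 5–20 min after phenylquinone; % inhibition is relative to saline-treated controls.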

[2] = target: T1, NA transporter (Rattus norvegicus, UniProt Q63380); experiment: synaptosomal noradrenaline uptake inhibition (NA uptake inhibition); assay type: biochemical; details: for inhibition at 1 µM: read-out: NA Uptake Inhibition at 1 μM, 1 μM in the assay, synaptosomes from rat hypothalamus; for NA Uptake Inhibition at 1 μM: 1 μM in the assay, synaptosomes from rat hypothalamus
T1 construct: synaptosomes are isolated fresh from rat brains; from tissue; host or cells: rat hypothalamus synaptosomes (P2 fraction)
T1 sequence (Q63380 1-617): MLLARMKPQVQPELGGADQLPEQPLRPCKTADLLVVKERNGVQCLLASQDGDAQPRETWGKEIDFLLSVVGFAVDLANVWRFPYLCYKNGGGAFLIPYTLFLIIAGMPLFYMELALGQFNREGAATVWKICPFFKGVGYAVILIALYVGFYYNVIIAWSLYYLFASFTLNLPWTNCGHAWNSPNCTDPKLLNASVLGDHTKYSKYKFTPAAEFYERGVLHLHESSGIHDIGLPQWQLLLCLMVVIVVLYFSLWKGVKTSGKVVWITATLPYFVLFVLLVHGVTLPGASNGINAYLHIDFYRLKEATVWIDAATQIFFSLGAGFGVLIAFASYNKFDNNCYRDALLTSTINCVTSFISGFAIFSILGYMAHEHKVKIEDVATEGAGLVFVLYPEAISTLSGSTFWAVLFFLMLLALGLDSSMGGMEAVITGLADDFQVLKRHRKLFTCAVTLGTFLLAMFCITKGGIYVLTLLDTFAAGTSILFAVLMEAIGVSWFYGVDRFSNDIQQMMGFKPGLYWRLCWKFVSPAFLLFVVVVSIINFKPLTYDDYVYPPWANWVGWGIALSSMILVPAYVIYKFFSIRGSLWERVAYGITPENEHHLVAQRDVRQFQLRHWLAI
Procedure, shortened: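 IC50 values converted to Ki via Cheng-Prusoff; Km by Lineweaver-Burk. N=4 independent series, each in triplicate, mean ± SEM.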

[3] = system: phenylalkylamine binding site of the L-type calcium channel; experiment: Verapamil binding, L calcium channel; details: for Verapamil Binding at 10 μM: percentage inhibition, N-methyl-[3H]-verapamil 2 nM
Description: Binding Investigations in the L Calcium Channel
Phenylalkylamine Binding Site (Verapamil Binding)
The biological material (ion channel particles) was prepared on the basis of the publication of Reynolds, Gould and Snyder (I. J. Reynolds, R. J. Gould and S. H. Snyder (1983) […]. 95, 319-321).
N-methyl-[^3H]-verapamil (2 nM in the assay) was used as radioligand. The radioactivity that is measured in the presence of non-radioactive verapamil (10^−4 M in the assay) is defined as non-specific binding. The material was incubated at 25° C. for 45 minutes. The material was then filtered using a Whatman GF/B filter, followed by washing. The radioactivity remaining on the filter (ion channel binding) was measured using a β-counter.
For this purpose IC50 values are obtained, which can be converted to inhibitor constants (Ki) according to the “Cheng-Prusoff equation” (Y. C. Clieng and W. H. Prusoff (1973) Biochem. Pharmacol. 22, 3099-3108). The IC50 values were obtained by means of the computer program “Figure P” (version 6.0, Biosoft, Cambridge, England). Km values were calculated according to Lineweaver and Burk (H. Lineweaver and D. Burk (1934) J. Am. Chem. Soc. 56, 658-666). The “Ligand” computer program (version 4, Biosoft, England) was used to obtain Ken values.

[4] = system: benzothiazepine binding site of the L-type calcium channel; experiment: Diltiazem binding, L calcium channel; parameters: species or system rat; details: 10 μM, percentage inhibition, [3H]-cis-(+)-diltiazem 5 nM, rat cerebral cortex membranes
Procedure, shortened: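 Rat cerebral cortex membranes incubated with [^3H]-cis-(+)-diltiazem (5 nM) for 20 min at 25° C; nonspecific binding defined with (±)-diltiazem (10^−6 M). Bound ligand collected by GF/B filtration and counted; IC50 values converted to Ki by Cheng-Prusoff.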

[5] = system: binding site 2 of the sodium channel; experiment: BTX binding, sodium channel; details: 10 μM, percentage inhibition, [3H]-batrachotoxin A20 α-benzoate 10 nM, rat cerebral cortex synaptosomes
Procedure, shortened: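 Rat cerebral cortex synaptosomes incubated with 10 nM [^3H]-batrachotoxin A20 α-benzoate at 37° C for 120 min; non-specific binding defined with 0.3 mM veratridine. IC50 values converted to Ki via Cheng-Prusoff; means±SEM of 3 independent series run in triplicate.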

SMILES | inhibition in vivo at 10 mg/kg [1] [%] | inhibition at 1 µM [2] [%] | Verapamil Binding at 10 μM [3] [%] | Diltiazem Binding at 10 μM [4] [%] | BTX Binding at 10 μM [5] [%] | NA Uptake Inhibition at 1 μM [2] [%] | % Inhibition of the writhing reaction at 10 mg/kg intravenously [1] [%] | Kd ([3]; radioligand, N=2, read-out: KD value for this binding site) [nM] | NA Uptake Inhibition at 1 μM ([2]; hydrochloride) [%] | Verapamil Binding at 10 μM ([3]; hydrochloride) [%] | BTX Binding at 10 μM ([5]; hydrochloride) [%] | % Inhibition of the writhing reaction at 10 mg/kg intravenously ([1]; hydrochloride, 10 mg/kg) [%]
CN(C)C(c1ccccc1)C1CCCCC1(O)c1ccoc1.Cl (centres unmarked) [Example 17, 2-(dimethylaminophenylmethyl)-1-furan-3-ylcyclohexanol, hydrochloride] | 100 | 57 | 72 | 54 | 70 | – | – | – | – | – | – | –
CN(C)C(c1ccccc1)C1CCCCC1(O)Cc1ccc(OC(F)(F)F)cc1.Cl (centres unmarked) [Example 16, 2-(dimethylaminophenylmethyl)-1-(4-trifluoromethoxybenzyl)cyclohexanol, hydrochloride] | 75 | 89 | 91 | 100 | 98 | – | – | – | – | – | – | –
COc1cccc(CC2(O)CCCCC2C(c2ccc(C(F)(F)F)cc2)N(C)C)c1.Cl (centres unmarked) [Example 22, 2-[dimethylamino-(4-trifluoromethylphenyl)methyl]-1-(3-methoxybenzyl)cyclohexanol, hydrochloride] | 68 | 91 | 80 | 72 | 98 | – | – | – | – | – | – | –
CN(C)C(c1ccccc1)C1CCCCC1(O)c1ccc(Cl)c(Cl)c1 (centres unmarked) [Example 19, 1-(3,4-dichlorophenyl)-2-(dimethylaminophenylmethyl)-cyclohexanol] | – | – | 81 | – | 97 | 50 | – | – | – | – | – | –
CN(C)C(c1ccccc1)C1CCCCC1(O)c1ccccc1.Cl (centres unmarked) [Example 3, 2-(dimethylaminophenylmethyl)-1-phenylcyclohexanol, hydrochloride] | 83 | 41 | 68 | 50 | 78 | – | – | – | – | – | – | –
CN(C)C(c1ccccc1)C1CCCCC1(O)c1cccc(F)c1.Cl (centres unmarked) [Example 2, 2-(dimethylaminophenylmethyl)-1-(3-fluorophenyl)cyclohexaniol, hydrochloride] | – | – | 76 | 52 | 80 | 52 | 88 | – | – | – | – | –
CN(C)C(c1ccccc1)C1CCCCC1(O)c1ccc(Cl)cc1.Cl (centres unmarked) [Example 6, 1-(4-chlorophenyl)-2-(dimethylaminophenylmethyl)cyclohexanol, hydrochloride] | 83 | 51 | 60 | 96 | 90 | – | – | – | – | – | – | –
COc1ccc(CCN(C)CCCC(C#N)(c2ccc(OC)c(OC)c2)C(C)C)cc1OC (centres unmarked) [N-methyl-[^3H]-verapamil, reference compound] | – | – | – | – | – | – | – | 139 | – | – | – | –
CN(C)c1ccc(C2(O)CCCCC2C(c2ccccc2)N(C)C)cc1.Cl (centres unmarked) [Example 10, 1-(4-dimethylaminophenyl)-2-[dimethylaminophenylmethyl]cyclohexanol, hydrochloride] | 97 | 48 | 61 | 69 | 88 | – | – | – | – | – | – | –
CN(C)C(c1ccccc1)C1CCCCC1(O)c1ccc(Cl)c(Cl)c1.Cl (single isomer, unassigned; (+)) [+19, (+)-1-(3,4-dichlorophenyl)-2-(dimethylaminophenylmethyl)cyclohexanol, hydrochloride] | 74 | – | – | 85 | – | – | – | – | 62 | 82 | 92 | –
CN(C)C(c1ccccc1)C1CCCCC1(O)c1cccc2c1OCO2.Cl (centres unmarked) [Example 11, 1-benzo[1,3]dioxol-4-yl-2-(dimethylaminophenylmethyl)cyclohexanol, hydrochloride] | 99 | 54 | 61 | 85 | 79 | – | – | – | – | – | – | –
CCCCC1(O)CCCCC1C(c1ccccc1)N(C)C.Cl (centres unmarked) [Example 18, 1-butyl-2-(dimethylaminophenylmethyl)cyclohexanol, hydrochloride] | 100 | 84 | 75 | 81 | 95 | – | – | – | – | – | – | –
CN(C)C(c1ccccc1)C1CCCCC1(O)c1ccc(F)cc1.Cl (centres unmarked) [Example 7, 2-(dimethylaminophenylmethyl)-1-(4-fluorophenyl)cyclohexanol, hydrochloride] | 85 | 38 | 56 | 78 | 86 | – | – | – | – | – | – | –
CN(C)C(c1ccccc1)C1CCCCC1(O)c1ccc(Cl)c(Cl)c1.Cl (single isomer, unassigned; (-)) [−19, (−)-1(3,4-dichlorophenyl)-2-(dimethylaminophenylmethyl)cyclohexanol, hydrochloride] | – | – | – | 85 | – | – | – | – | 36 | 83 | 96 | 88
COc1cccc(C2(O)CCCCC2C(c2ccccc2)N(C)C)c1.Cl (centres unmarked) [Example 1, 2-(dimethlylaminophenylmethyl)-1-(3-methoxyphenyl)cyclohexanol, hydrochloride] | – | – | 76 | 65 | 77 | 41 | 85 | – | – | – | – | –
COc1ccc(C2(O)CCCCC2C(c2ccccc2)N(C)C)cc1.Cl (centres unmarked) [Example 5, 2-(dimethylaminophenylmethyl)-1-(4-methoxyphenyl)cyclohexanol, hydrochloride] | 100 | 70 | 56 | 54 | 97 | – | – | – | – | – | – | –
CN(C)C(c1ccccc1)C1CCCCC1(O)c1ccc2ccccc2c1.Cl (centres unmarked) [Example 21, 2-(dimethylaminophenylmethyl)-1-naphthalene-2-ylcyclohexanol, hydrochloride] | 97 | 17 | 71 | 85 | 94 | – | – | – | – | – | – | –
CN(C)C(c1ccccc1)C1CCCCC1(O)Cc1ccc(F)cc1.Cl (centres unmarked) [Example 25, 2-(dimethylaminophenylmethyl)-1-(4-fluorobenzyl)cyclohexanol, hydrochloride] | 100 | 98 | – | 85 | 91 | – | – | – | – | – | – | –
CN(C)C(c1ccccc1)C1CCCCC1(O)CCCc1ccccc1.Cl (centres unmarked) [Example 68, 2-(dimethylaminophenylmethyl)-1-(3-phenylpropyl)cyclohexanol, hydrochloride] | 55 | 49 | – | 88 | 98 | – | – | – | – | – | – | –
CN(C)C(c1ccccc1)C1CCCCC1(O)c1cccc(O)c1.Cl (centres unmarked) [Example 4] | – | – | 57 | 46 | 70 | 49 | 75 | – | – | – | – | –
